Laboratory results published in patent US20240217969A1, “SUBSTITUTED PYRROLE CARBOXAMIDES, PROCESS FOR THEIR PREPARATION AND THEIR USE AS KINASE INHIBITORS” (priority 2021, published 2024).

Assays:
Cdc7 = Cdc7 (Homo sapiens, UniProt O00311); experiment: Cdc7 biochemical assay, ADPGlo assay format
Protocol: The biochemical activity of compounds was determined by incubation with specific enzymes and substrate, followed by quantification of the ADP product. Compounds were 4-fold serially diluted from 10 to 0.0006 uM; in the case of the pre-incubation step, the enzyme is added to the inhibitor solution and the mixture is left to incubate for 30 minutes at room temperature (r.t.). The reaction started with the addition of the substrate and the ATP, when the enzyme was already present in the preincubation step, or substrate, ATP and enzyme when the preincubation step was not present. The concentrations of ATP, substrate and reaction buffer are described above. The assays were run in a robotized format on 384-well plates. […] At the end of the incubation time, an equal volume of ADPGlo Reagent 1 (Promega) was added to stop the reaction and to remove all unreacted ATP. After 60 minutes, an equal volume of ADPGlo Reagent 2 (Promega) was added to convert ADP in ATP and then ATP in light by luciferase reaction.
y=bottom+(top−bottom)/(1+10^((log IC50−x)*slope))
where x is the logarithm of the inhibitor concentration, y is the response; y starts at bottom and goes to top with a sigmoid shape.

[1] = target: T1, aldehyde oxidases (human liver cytosol) (Homo sapiens, UniProt Q06278); type: in vitro ADME; settings: human liver cytosol 1 mg/mL, 1 μM compound; for HLC % remaining (1 h incub.): 60 min incubation; for HLC % remaining (1 h incub.) / HLC T½ min: pH 7.4, 37° C.; for IntCl (Intrinsic Clearance): half-life approach
T1 construct: added to human liver cytosol (1 mg/mL protein content); from tissue; host or cells: human liver cytosol
T1 sequence (Q06278 whole entry): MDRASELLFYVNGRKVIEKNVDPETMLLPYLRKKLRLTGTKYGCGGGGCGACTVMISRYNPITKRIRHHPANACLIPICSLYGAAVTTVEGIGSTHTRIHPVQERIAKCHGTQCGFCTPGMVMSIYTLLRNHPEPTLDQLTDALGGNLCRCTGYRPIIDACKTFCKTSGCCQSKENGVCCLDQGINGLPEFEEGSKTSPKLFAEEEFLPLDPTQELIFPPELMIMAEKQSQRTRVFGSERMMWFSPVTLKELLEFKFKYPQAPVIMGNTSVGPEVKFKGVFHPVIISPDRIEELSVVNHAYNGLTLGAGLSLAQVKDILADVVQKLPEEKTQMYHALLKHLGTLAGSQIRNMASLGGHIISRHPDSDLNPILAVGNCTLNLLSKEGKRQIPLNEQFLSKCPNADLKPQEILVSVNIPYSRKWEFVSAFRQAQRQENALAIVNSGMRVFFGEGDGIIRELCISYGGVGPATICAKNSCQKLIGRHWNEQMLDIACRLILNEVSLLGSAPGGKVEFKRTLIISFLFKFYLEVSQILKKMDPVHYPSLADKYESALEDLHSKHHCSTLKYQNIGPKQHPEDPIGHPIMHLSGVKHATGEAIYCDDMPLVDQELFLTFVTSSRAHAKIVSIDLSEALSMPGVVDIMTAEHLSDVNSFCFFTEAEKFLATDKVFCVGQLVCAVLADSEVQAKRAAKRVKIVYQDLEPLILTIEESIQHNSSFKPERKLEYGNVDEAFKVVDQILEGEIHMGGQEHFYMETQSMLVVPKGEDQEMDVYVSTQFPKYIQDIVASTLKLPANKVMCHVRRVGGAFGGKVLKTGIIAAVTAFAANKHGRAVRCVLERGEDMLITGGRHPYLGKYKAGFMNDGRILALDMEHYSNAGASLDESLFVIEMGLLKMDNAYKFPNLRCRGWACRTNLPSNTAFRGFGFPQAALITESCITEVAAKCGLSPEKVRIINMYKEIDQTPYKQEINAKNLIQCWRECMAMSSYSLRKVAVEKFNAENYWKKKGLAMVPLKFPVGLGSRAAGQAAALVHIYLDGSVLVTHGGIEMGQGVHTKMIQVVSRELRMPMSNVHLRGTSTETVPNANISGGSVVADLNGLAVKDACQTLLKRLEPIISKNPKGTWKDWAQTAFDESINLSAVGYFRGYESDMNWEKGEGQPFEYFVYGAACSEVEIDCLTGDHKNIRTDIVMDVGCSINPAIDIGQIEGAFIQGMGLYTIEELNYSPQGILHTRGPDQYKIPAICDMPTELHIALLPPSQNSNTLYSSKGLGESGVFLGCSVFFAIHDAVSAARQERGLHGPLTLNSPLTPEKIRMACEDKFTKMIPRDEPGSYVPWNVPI
Protocol: The aldehyde oxidases involvement in the metabolism of the test item was determined by comparison of the intrinsic clearance values in the presence and absence of aldehyde oxidases inhibitor hydralazine hydrochloride. The purpose of the study was to evaluate the in-vitro intrinsic clearance, the metabolic stability towards aldehyde oxidases (AO) activity and the metabolism of the test item in human liver cytosol. The intrinsic clearance was determined using the half-life approach, by measuring the substrate disappearance along 60 minutes incubation with human liver cytosol. Incubations were performed at the concentration of 1 μM. […] HPLC-MS/MS was used for the detection of the compound left over during the incubation. For intrinsic clearance determination samples were analyzed by high performance liquid chromatography (HPLC) on-line with mass spectrometry (MS) equipment. For the determination of aldehyde oxidases activity (i.e. positive control) of cytosol, phthalazine was incubated with human liver cytosol in presence and absence of the aldehyde oxidases inhibitor. On the day of the incubation, the compound was dissolved in DMSO at the concentration of 10 mM. Aliquots of this solution were added to the test system to a final concentration of […]. The percentage of DMSO in the final incubates was […]. Aliquots of the test item were added to human liver cytosol (1 mg/mL protein content) in Dulbecco's buffer, pH 7.4 at 37° C., to reach final concentration of 1 μM. Incubations were performed in a 48-well plate, under shaking. At 0, 5, 10, 20, 30 and 60 minutes incubation, 50 μL aliquots of the incubate were sampled, poured in 80 μL of ice-cold acetonitrile and 20 μL of 1 μM warfarin in acetonitrile (injection control) and centrifuged at 2500 rpm for 20 minutes. The supernatant was immediately analysed by LC-MS/MS.
The test item was incubated in parallel, in duplicate, at the concentration of 1 μM in Dulbecco's buffer, pH 7.4 for 60 min at 37° C. in the presence of 10 μM hydralazine hydrochloride (aldehyde oxidases inhibitor).
The chemical stability of the test item was checked in parallel by incubating the test item in single at the concentration of 1 μM in Dulbecco's buffer, pH 7.4 for 60 min at 37° C. (negative control).
The intrinsic clearance (CLint) was calculated using the half-life approach. Half-life and CLint were determined from the concentration (area counts) remaining at the different sampling points using the LC-MS/MS method. By plotting the natural logarithmic area of the compound remaining against the time, the slope was calculated by linear regression analysis and converted into the half-life (t½) and CLint expressed as μL/min/mg protein according to the following formulae: […]

Sequence of Cdc7 (O00311 whole entry): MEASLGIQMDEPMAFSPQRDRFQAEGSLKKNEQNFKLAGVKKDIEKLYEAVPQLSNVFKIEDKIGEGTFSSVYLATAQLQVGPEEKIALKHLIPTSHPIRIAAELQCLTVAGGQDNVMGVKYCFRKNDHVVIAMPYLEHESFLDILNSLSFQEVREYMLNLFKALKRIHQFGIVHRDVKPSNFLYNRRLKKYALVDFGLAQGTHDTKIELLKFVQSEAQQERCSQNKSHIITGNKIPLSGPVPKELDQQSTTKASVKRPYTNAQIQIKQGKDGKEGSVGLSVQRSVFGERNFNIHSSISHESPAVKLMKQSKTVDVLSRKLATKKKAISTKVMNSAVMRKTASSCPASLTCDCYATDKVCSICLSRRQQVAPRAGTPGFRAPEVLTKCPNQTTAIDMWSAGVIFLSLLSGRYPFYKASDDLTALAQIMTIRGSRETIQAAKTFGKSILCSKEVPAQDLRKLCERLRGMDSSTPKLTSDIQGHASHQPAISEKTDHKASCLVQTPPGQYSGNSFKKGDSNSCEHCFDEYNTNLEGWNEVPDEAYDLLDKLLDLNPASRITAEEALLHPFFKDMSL
Sequence of Cdc7 (Q9UBU7 whole entry partner): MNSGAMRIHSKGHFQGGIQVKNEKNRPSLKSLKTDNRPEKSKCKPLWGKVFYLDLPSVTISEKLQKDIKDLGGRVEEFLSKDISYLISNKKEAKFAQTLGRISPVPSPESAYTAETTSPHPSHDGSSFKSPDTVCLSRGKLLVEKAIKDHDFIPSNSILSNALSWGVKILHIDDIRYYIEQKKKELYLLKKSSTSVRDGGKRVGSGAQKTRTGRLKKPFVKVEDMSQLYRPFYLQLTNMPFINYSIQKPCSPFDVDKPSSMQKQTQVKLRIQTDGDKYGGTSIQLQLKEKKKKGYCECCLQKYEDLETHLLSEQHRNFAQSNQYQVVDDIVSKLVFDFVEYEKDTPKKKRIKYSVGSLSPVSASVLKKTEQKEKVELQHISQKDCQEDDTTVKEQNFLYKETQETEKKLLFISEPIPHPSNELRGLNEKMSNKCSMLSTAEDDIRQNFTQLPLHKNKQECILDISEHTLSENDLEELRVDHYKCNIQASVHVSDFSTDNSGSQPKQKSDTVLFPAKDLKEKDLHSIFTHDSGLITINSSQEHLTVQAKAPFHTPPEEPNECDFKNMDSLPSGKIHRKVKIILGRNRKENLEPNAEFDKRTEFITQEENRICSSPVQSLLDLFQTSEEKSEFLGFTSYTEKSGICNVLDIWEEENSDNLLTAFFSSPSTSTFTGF

SMILES	IC50 (Cdc7)	HLC % remaining (1 h incub.) [1]	IntCl (Intrinsic Clearance) [1]	HLC T½ min [1]
NC(=O)c1cc(-c2ccnc3[nH]ccc23)[nH]c1-c1ccc(Cl)cc1Cl [compound 46, 2-(2,4-dichlorophenyl)-5-(1H-pyrrolo[2,3-b]pyridin-4-yl)-1H-pyrrole-3-carboxamide]	1 nM	100%	2.9 μL/min/mg protein	3.98 h
NC(=O)c1cc(-c2ccnc3[nH]ccc23)[nH]c1-c1ccc(F)cc1Cl [comp 3, 2-(2-chloro-4-fluorophenyl)-5-(1H-pyrrolo[2,3-b]pyridin-4-yl)-1H-pyrrole-3-carboxamide]	1 nM	97%	2.9 μL/min/mg protein	3.98 h
NC(=O)c1cc(-c2ccnc3[nH]ccc23)[nH]c1-c1cccc(F)c1F [comp 6, 2-(2,3-difluorophenyl)-5-(1H-pyrrolo[2,3-b]pyridin-4-yl)-1H-pyrrole-3-carboxamide]	5 nM	100%	2.9 μL/min/mg protein	3.98 h
Cc1cc(C(F)(F)F)ccc1-c1[nH]c(-c2ccnc3[nH]ccc23)cc1C(N)=O [comp 11, 2-[2-methyl-4-(trifluoromethyl)phenyl]-5-(1H-pyrrolo[2,3-b]pyridin-4-yl)-1H-pyrrole-3-carboxamide]	7 nM	100%	2.9 μL/min/mg protein	3.98 h
COc1cccc(-c2[nH]c(-c3ccnc4[nH]ccc34)cc2C(N)=O)c1F [comp 12, 2-(2-fluoro-3-methoxyphenyl)-5-(1H-pyrrolo[2,3-b]pyridin-4-yl)-1H-pyrrole-3-carboxamide]	4 nM	97%	2.9 μL/min/mg protein	3.98 h
NC(=O)c1cc(-c2ccnc3[nH]ccc23)[nH]c1-c1ccc(Cl)cc1F [comp 2, 2-(4-chloro-2-fluorophenyl)-5-(1H-pyrrolo[2,3-b]pyridin-4-yl)-1H-pyrrole-3-carboxamide]	3 nM	98%	2.9 μL/min/mg protein	3.98 h
NC(=O)c1cc(-c2c[nH]nc2C(F)(F)F)[nH]c1-c1ccc(Cl)cc1Cl [compound 48, 2-(2,4-dichlorophenyl)-5-[3-(trifluoromethyl)-1H-pyrazol-4-yl]-1H-pyrrole-3-carboxamide]	188 nM	100%	2.9 μL/min/mg protein	3.98 h
Cc1ccc(-c2[nH]c(-c3cn[nH]c3)cc2C(N)=O)c(F)c1 [compound 49, 2-(2-fluoro-4-methylphenyl)-5-(1H-pyrazol-4-yl)-1H-pyrrole-3-carboxamide]	18 nM	100%	2.9 μL/min/mg protein	3.98 h
NC(=O)c1cc(-c2ccnc3[nH]ccc23)[nH]c1-c1ccc(F)cc1F [comp 4, 2-(2,4-difluorophenyl)-5-(1H-pyrrolo[2,3-b]pyridin-4-yl)-1H-pyrrole-3-carboxamide]	4 nM	100%	2.9 μL/min/mg protein	3.98 h
Cc1ccc(-c2[nH]c(-c3ccnc4[nH]ccc34)cc2C(N)=O)c(C(F)(F)F)c1 [comp 8, 2-[4-methyl-2-(trifluoromethyl)phenyl]-5-(1H-pyrrolo[2,3-b]pyridin-4-yl)-1H-pyrrole-3-carboxamide]	3 nM	85%	2.9 μL/min/mg protein	3.98 h
Cc1c(-c2[nH]c(-c3ccnc4[nH]ccc34)cc2C(N)=O)cccc1C(F)(F)F [comp 15, 2-[2-methyl-3-(trifluoromethyl)phenyl]-5-(1H-pyrrolo[2,3-b]pyridin-4-yl)-1H-pyrrole-3-carboxamide]	6 nM	100%	2.9 μL/min/mg protein	3.98 h
NC(=O)c1cc(-c2cn[nH]c2)[nH]c1-c1ccc(Cl)cc1Cl [compound 43, 2-(2,4-dichlorophenyl)-5-(1H-pyrazol-4-yl)-1H-pyrrole-3-carboxamide]	13 nM	100%	2.9 μL/min/mg protein	3.98 h
Cc1ccc(-c2[nH]c(-c3ccnc4[nH]ccc34)cc2C(N)=O)c(F)c1F [comp 10, 2-(2,3-difluoro-4-methylphenyl)-5-(1H-pyrrolo[2,3-b]pyridin-4-yl)-1H-pyrrole-3-carboxamide]	3 nM	95%	2.9 μL/min/mg protein	3.98 h
NC(=O)c1cc(-c2ccnc3[nH]ccc23)[nH]c1-c1ccc(C(F)(F)F)cc1Cl [comp 5, 2-[2-chloro-4-(trifluoromethyl)phenyl]-5-(1H-pyrrolo[2,3-b]pyridin-4-yl)-1H-pyrrole-3-carboxamide]	1 nM	100%	2.9 μL/min/mg protein	3.98 h
Cc1ccc(-c2[nH]c(-c3ccnc4[nH]ccc34)cc2C(N)=O)c(Cl)c1 [comp 9, 2-(2-chloro-4-methylphenyl)-5-(1H-pyrrolo[2,3-b]pyridin-4-yl)-1H-pyrrole-3-carboxamide]	1 nM	100%	2.9 μL/min/mg protein	3.98 h
Cc1cccc(-c2[nH]c(-c3ccnc4[nH]ccc34)cc2C(N)=O)c1F [comp 14, 2-(2-fluoro-3-methylphenyl)-5-(1H-pyrrolo[2,3-b]pyridin-4-yl)-1H-pyrrole-3-carboxamide]	10 nM	100%	2.9 μL/min/mg protein	3.98 h
Cc1n[nH]cc1-c1cc(C(N)=O)c(-c2ccc(Cl)cc2Cl)[nH]1 [compound 44, 2-(2,4-dichlorophenyl)-5-(3-methyl-1H-pyrazol-4-yl)-1H-pyrrole-3-carboxamide]	48 nM	100%	2.9 μL/min/mg protein	3.98 h
NC(=O)c1cc(-c2ccnc3[nH]ccc23)[nH]c1-c1cccc(F)c1Cl [comp 13, 2-(2-chloro-3-fluorophenyl)-5-(1H-pyrrolo[2,3-b]pyridin-4-yl)-1H-pyrrole-3-carboxamide]	1 nM	100%	2.9 μL/min/mg protein	3.98 h
Cc1ccc(-c2[nH]c(-c3ccnc4[nH]ccc34)cc2C(N)=O)c2ccccc12 [comp 32, 2-(4-methylnaphthalen-1-yl)-5-(1H-pyrrolo[2,3-b]pyridin-4-yl)-1H-pyrrole-3-carboxamide]	17 nM	–	–	–
NC(=O)c1cc(-c2ccnc3[nH]ccc23)[nH]c1-c1csc2ccccc12 [comp 35, 2-(1-benzothiophen-3-yl)-5-(1H-pyrrolo[2,3-b]pyridin-4-yl)-1H-pyrrole-3-carboxamide]	7 nM	–	–	–
NC(=O)c1cc(-c2ccnc3[nH]ccc23)[nH]c1-c1ccc(OC(F)(F)F)cc1 [comp 34, 5-(1H-pyrrolo[2,3-b]pyridin-4-yl)-2-[4-(trifluoromethoxy)phenyl]-1H-pyrrole-3-carboxamide]	42 nM	–	–	–
